Consider 22 compounds from patent publication EP4385979A1 (Grünenthal GmbH, priority 2022, dated 2024).

T1 sequence (Q9Y5Y9 whole entry): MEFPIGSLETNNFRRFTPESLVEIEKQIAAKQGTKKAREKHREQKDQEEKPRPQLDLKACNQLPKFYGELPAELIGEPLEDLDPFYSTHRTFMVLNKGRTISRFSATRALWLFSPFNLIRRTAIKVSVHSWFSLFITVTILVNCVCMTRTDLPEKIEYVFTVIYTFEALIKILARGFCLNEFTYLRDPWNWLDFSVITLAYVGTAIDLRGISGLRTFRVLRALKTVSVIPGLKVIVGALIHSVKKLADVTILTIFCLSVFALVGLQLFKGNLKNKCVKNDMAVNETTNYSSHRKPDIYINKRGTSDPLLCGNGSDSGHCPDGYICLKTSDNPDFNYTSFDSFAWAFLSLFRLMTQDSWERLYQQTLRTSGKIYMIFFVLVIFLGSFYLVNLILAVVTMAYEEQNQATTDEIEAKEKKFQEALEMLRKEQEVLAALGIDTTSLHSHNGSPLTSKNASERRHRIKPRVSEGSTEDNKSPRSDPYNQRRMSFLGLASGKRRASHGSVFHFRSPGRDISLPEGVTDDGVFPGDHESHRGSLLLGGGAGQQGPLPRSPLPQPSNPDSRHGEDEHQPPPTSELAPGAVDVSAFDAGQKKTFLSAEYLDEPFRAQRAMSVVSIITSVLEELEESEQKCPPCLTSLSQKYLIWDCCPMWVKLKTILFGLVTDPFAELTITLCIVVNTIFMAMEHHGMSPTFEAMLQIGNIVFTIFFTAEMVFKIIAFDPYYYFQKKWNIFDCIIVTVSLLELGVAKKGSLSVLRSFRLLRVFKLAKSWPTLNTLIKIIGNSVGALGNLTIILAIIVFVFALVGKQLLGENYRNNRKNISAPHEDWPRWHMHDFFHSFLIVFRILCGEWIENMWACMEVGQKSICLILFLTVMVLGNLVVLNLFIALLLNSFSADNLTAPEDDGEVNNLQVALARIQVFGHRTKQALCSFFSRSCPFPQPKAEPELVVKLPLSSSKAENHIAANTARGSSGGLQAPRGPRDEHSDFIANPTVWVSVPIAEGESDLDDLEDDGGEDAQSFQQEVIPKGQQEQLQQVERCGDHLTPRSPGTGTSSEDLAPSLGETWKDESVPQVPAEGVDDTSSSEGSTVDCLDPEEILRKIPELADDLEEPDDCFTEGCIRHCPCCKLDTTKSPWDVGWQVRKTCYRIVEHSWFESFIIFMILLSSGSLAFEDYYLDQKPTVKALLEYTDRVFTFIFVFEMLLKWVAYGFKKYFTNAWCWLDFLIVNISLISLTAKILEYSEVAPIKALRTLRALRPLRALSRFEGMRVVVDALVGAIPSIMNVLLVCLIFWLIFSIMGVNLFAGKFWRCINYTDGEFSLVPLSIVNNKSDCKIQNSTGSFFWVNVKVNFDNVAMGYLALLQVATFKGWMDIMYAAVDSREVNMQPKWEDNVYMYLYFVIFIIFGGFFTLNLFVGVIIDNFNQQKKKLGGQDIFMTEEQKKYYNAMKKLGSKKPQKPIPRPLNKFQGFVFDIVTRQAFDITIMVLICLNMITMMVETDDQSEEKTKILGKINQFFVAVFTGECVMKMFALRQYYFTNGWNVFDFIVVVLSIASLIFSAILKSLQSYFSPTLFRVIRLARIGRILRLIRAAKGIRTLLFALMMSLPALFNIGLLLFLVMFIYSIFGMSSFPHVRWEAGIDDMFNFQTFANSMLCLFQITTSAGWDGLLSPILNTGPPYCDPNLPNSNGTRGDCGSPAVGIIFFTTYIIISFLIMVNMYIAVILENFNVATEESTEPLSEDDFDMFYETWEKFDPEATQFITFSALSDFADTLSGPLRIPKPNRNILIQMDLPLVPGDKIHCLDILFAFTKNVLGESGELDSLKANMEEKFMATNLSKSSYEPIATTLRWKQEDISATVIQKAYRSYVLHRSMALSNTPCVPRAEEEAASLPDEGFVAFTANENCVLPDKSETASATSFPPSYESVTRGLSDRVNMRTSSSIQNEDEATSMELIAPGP

The test addresses T1, human NaV1.8 (Homo sapiens, UniProt Q9Y5Y9).
T1 construct: expressed in transfected cells; host or cells: HEK
The test is described as follows: Electrophysiology: voltage-clamp recordings, whole-cell patch clamp on Qube384 automated platform. It is filed as cell-based. Conditions: HEK-NaV1.8 (NM 006514.1) with b3 recombinant cell line, multi hole plates, ambient room temperature, read-out: Potency category (human NaV1.8 IC50). How it is done: Electrophysiology: Voltage-Clamp recordings
The following NaV1.8 recombinant cell line was used for recordings: HEK-NaV1.8 (NM 006514.1) with b3 (NM_018400.3).
Sodium currents were measured using the patch clamp technique in the whole-cell configuration using the Qube384 (Sophion A/S, Copenhagen, Denmark) automated voltage clamp platform. "Multi hole" plates were used for the cell line expressing NaV1.8 while "single hole" plates were used for the recombinant cell lines expressing the other subtypes. Appropriate filters (for minimum seal resistance and minimum current size) and series resistance compensation (for high quality sodium channel recordings) were applied. Data was collected at ambient room temperature.
The recording […] solution contained (in mM): NaCl 145 mM, KCl 4 mM, CaCl2 2 mM, MgCl2 1 mM, HEPES 10 mM, Glucose 10 mM, pH 7.4 (NaOH). The […] recording solution contained (in mM): CsF 120 mM, CsCl 20 mM, NaCl 10 mM, EGTA 10 mM, HEPES 10 mM, pH 7.2 (CsOH). Currents were recorded at 25 kHz sampling frequency and filtered at 5 kHz. Series resistance compensation was applied at 65%.
Vehicle (VEH) is the control condition where cells are exposed to 0.3 % DMSO without compound. All runs include VEH controls being exposed to the same voltage protocols to assess non-compound related phenomena such as run down and then used to isolate compound dependent effects on currents.
To check for state-dependence inhibition, the following voltage-sequence was applied every 20 seconds: From a resting membrane potential of-120 mV, the first test pulse (P1; 20 ms to -10 mV) was applied to check for channels in the Resting State followed by a brief recovery (20 ms to -120 mV), then holding the membrane voltage to V1/2 (4 seconds at voltage to obtain half the channel at Rest and half Inactivated) with a subsequent second test pulse (P2; 20 ms to -10 mV) to check for channels in the Inactivated State, followed by another brief recovery (20 ms to -120 mV) and a final third test pulse (P3; 20 ms to -10 mV) to check for recovered channels.
To check for frequency-dependent inhibition, a 10 Hz protocol and a 20 Hz protocol were applied; namely,
From a resting membrane potential of -120 mV, 40-pulses (10 ms to -10 mV) was applied at 10 Hz (at 100 ms between pulses) and then at 20 Hz (at 50 ms between pulses). Each parameter was recorded (P1, P2, P3, P40 from 10Hz and P40 from 20Hz) during a control period (lasting ~ 5 minutes) when establishing the baseline and during compound period (lasting ~ 12 minutes) when test compound (or vehicle) was applied. For each parameter, the value at the end of the compound period was normalized to the vehicle baseline; as follows Normalized Inhibition (NormCPD) = (CPD Valueend CPD period)/(VEH Valueend Control Period) [formula]
To adjust for any variance in the Na^+ current signal during the compound period (owing to cumulative inactivation independent of compound or shifts in biophysics over time), a dedicated segment of the recording wells in each 384 plate were dedicated to having only vehicle exposure. These vehicle-only recordings were used to correct for any apparent "run-up" or "run-down" in the experiment. Normalized Inhibition (NormVEH) = (VEH Valueend CPD period)/(VEH Valueend Control Period) [formula]
The adjusted inhibition was calculated as follows: % Inhibitioncorrected = 100 × (NormCPD −NormVEH)/(100−NormVEH) [formula]
Percent inhibition was determined and IC50 values were calculated using a 4 parameter logistic model within XLFit Software (IDBS, Boston MA): % Inhibitioncorrected = A + ((B−A))/((1 + (((x)/(C)))^D) [formula] where A and B are the maximal and minimum inhibition respectively, C is the IC50 concentration and D is the (Hill) slope.
For orientation: In patch-clamp work, channel activity is measured electrically.
Broadly, the IC50 is the midpoint of a concentration-inhibition curve. On to `CS(=O)(=O)c1cc(NC(=O)c2c(C(F)(F)F)c(C3CC3)nn2CC23CC(F)(C2)C3)ccn1` [Example 21, 3-cyclopropyl-1-((3-fluorobicyclo [1.1.1]pentan-1-yl)methyl)-N-(2-(methylsulfonyl)pyridin-4-yl)-4-(trifluoromethyl)-1H-pyrazole-5-carboxamide], for which the IC50 is no more than 100 nM.
For the compound `CC12CC(Cn3nc(C4CC4)c(C(F)(F)F)c3C(=O)Nc3ccnc(S(C)(=O)=O)c3)(CO1)C2` [Example 23, 3-cyclopropyl-1-((1-methyl-2-oxabicyclo[2.1.1]hexan-4-yl)methyl)-N-(2-(methylsulfonyl)pyridin-4-yl)-4-(trifluoromethyl)-1H-pyrazole-5-carboxamide], the IC50 lay in the range of 100 to 1000 nM.
To `CS(=O)(=O)c1cc(NC(=O)c2c(C(F)(F)F)c(C3CC3)nn2CC23CC(CO2)C3)ccn1` [Example 24, 1-((2-oxabicyclo[2.1.1]hexan-1-yl)methyl)-3-cyclopropyl-N-(2-(methylsulfonyl)pyridin-4-yl)-4-(trifluoromethyl)-1H-pyrazole-5-carboxamide] belongs 100 to 1000 nM; to `Cc1c(C(C)(F)F)nn(CC23CC(C(F)(F)F)(C2)C3)c1C(=O)Nc1ccnc(S(C)(=O)=O)c1` [Example 25, 3-(1,1-difluoroethyl)-4-methyl-N-(2-(methylsulfonyl)pyridin-4-yl)-1-((3-(trifluoromethyl)bicyclo[1.1.1]pentan-1yl)methyl)-1H-pyrazole-5-carboxamide], no more than 100 nM.
Then `Cc1nn(CC23CC(C(F)(F)F)(C2)C3)c(C(=O)Nc2ccnc(S(C)(=O)=O)c2)c1C(F)(F)F` [Example 26, 3-methyl-N-(2-(methylsulfonyl)pyridin-4-yl)-4-(trifluoromethyl)-1-((3-(trifluoromethyl)bicyclo[1.1.1]pentan-1yl)methyl)-1H-pyrazole-5-carboxamide], with 100 to 1000 nM; and `Cc1c(C(F)(F)F)nn(CC23CC(C(F)(F)F)(C2)C3)c1C(=O)Nc1ccnc(S(C)(=O)=O)c1` [Example 27, 4-methyl-N-(2-(methylsulfonyl)pyridin-4-yl)-3-(trifluoromethyl)-1-((3-(trifluoromethyl)bicyclo[1.1.1]pentan-1yl)methyl)-1H-pyrazole-5-carboxamide], with 100 to 1000 nM.
To `CS(=O)(=O)c1cc(NC(=O)c2c(C(F)(F)F)c(C3CC3)nn2CC23CC(C(F)(F)F)(C2)C3)ccn1` [Example 28, 3-cyclopropyl-N-(2-(methylsulfonyl)pyridin-4-yl)-4-(trifluoromethyl)-1-((3-(trifluoromethyl)bicyclo[1.1.1]pentan-1yl)methyl)-1H-pyrazole-5-carboxamide] belongs no more than 100 nM; to `NS(=O)(=O)c1cccc(NC(=O)c2c(C(F)(F)F)cnn2CC23CC(CO2)C3)c1` [Example 30, 1-((2-oxabicyclo[2.1.1]hexan-1-yl)methyl)-N-(3-sulfamoylphenyl)-4-(trifluoromethyl)-1H-pyrazole-5-carboxamide], 1000 to 10000 nM.
As for `CC12CC(Cn3ncc(C(F)(F)F)c3C(=O)Nc3cccc(S(N)(=O)=O)c3)(CO1)C2` [Example 31, 1-((1-methyl-2-oxabicyclo[2.1.1]hexan-4-yl)methyl)-N-(3-sulfamoylphenyl)-4-(trifluoromethyl)-1H-pyrazole-5-carboxamide], the IC50 was in the range of 1000 to 10000 nM.
To `NS(=O)(=O)c1cccc(NC(=O)c2c(C(F)(F)F)cnn2CC23CC(C2)C3)c1` [Example 32, 1-(bicyclo [1.1.1]pentan-1-ylmethyl)-N-(3-sulfamoylphenyl)-4-(trifluoromethyl)-1H-pyrazole-5-carboxamide] belongs 100 to 1000 nM; to `Cc1nn(CC23CC(CO2)C3)c(C(=O)Nc2cccc(S(N)(=O)=O)c2)c1C(F)(F)F` [Example 33, 1-((2-oxabicyclo [2.1.1]hexan-1-yl)methyl)-3-methyl-N-(3-sulfamoylphenyl)-4-(trifluoromethyl)-1H-pyrazole-5-carboxamide], 1000 to 10000 nM; to `NS(=O)(=O)c1cccc(NC(=O)c2c(C(F)(F)F)cnn2CC2CC3(CC3)C2)c1` [Example 34, 1-(spiro[2.3]hexan-5-ylmethyl)-N-(3-sulfamoylphenyl)-4-(trifluoromethyl)-1H-pyrazole-5-carboxamide], 100 to 1000 nM.
Then `NS(=O)(=O)c1cccc(NC(=O)c2c(C(F)(F)F)cnn2CC23CCC(C2)C3)c1` [Example 35, 1-(bicyclo[2.1.1]hexan-1-ylmethyl)-N-(3-sulfamoylphenyl)-4-(trifluoromethyl)-1H-pyrazole-5-carboxamide], with no more than 100 nM.
Then `Cc1nn(CC23CCC(C2)C3)c(C(=O)Nc2ccc(F)c(C(N)=O)c2)c1C(F)(F)F` [Example 36, 1-(bicyclo[2.1.1]hexan-1-ylmethyl)-N-(3-carbamoyl-4-fluorophenyl)-3-methyl-4-(trifluoromethyl)-1H-pyrazole-5-carboxamide], with no more than 100 nM; and `NC(=O)c1cc(NC(=O)c2c(C(F)(F)F)cnn2CC23CC(CO2)C3)ccc1F` [Example 37, 1-((2-oxabicyclo[2.1.1]hexan-1-yl)methyl)-N-(3-carbamoyl-4-fluorophenyl)-4-(trifluoromethyl)-1H-pyrazole-5-carboxamide], with 1000 to 10000 nM; and `NC(=O)c1cc(NC(=O)c2c(C(F)(F)F)cnn2CC23CC(C2)C3)ccc1F` [Example 38, 1-(bicyclo[1.1.1]pentan-1-ylmethyl)-N-(3-carbamoyl-4-fluorophenyl)-4-(trifluoromethyl)-1H-pyrazole-5-carboxamide], with 1000 to 10000 nM.
For `Cc1nn(CC23CC(CO2)C3)c(C(=O)Nc2ccc(F)c(C(N)=O)c2)c1C(F)(F)F` [Example 39, 1-((2-oxabicyclo[2.1.1]hexan-1-yl)methyl)-N-(3-carbamoyl-4-fluorophenyl)-3-methyl-4-(trifluoromethyl)-1H-pyrazole-5-carboxamide], the IC50 lay in the range of 100 to 1000 nM.
Then `Cc1nn(CC23CC(C2)C3)c(C(=O)Nc2ccc(F)c(C(N)=O)c2)c1C(F)(F)F` [Example 40, 1-(bicyclo[1.1.1]pentan-1-ylmethyl)-N-(3-carbamoyl-4-fluorophenyl)-3-methyl-4-(trifluoromethyl)-1H-pyrazole-5-carboxamide], with 100 to 1000 nM; and `NC(=O)c1cc(NC(=O)c2c(C(F)(F)F)cnn2CC2CC3(CC3)C2)ccc1F` [Example 41, N-(3-carbamoyl-4-fluorophenyl)-1-(spiro[2.3]hexan-5-ylmethyl)-4-(trifluoromethyl)-1H-pyrazole-5-carboxamide], with 100 to 1000 nM; and `NC(=O)c1cc(NC(=O)c2c(C(F)(F)F)cnn2CC23CCC(C2)C3)ccc1F` [Example 42, 1-(bicyclo[2.1.1]hexan-1-ylmethyl)-N-(3-carbamoyl-4-fluorophenyl)-4-(trifluoromethyl)-1H-pyrazole-5-carboxamide], with no more than 100 nM.
Then `CS(=O)(=O)n1cc(NC(=O)c2c(C(F)(F)F)cnn2CC23CC(C2)C3)cn1` [Example 47, 1-(bicyclo [1.1.1]pentan-1-ylmethyl)-N-(1-(methylsulfonyl)-1H-pyrazol-4-yl)-4-(trifluoromethyl)-1H-pyrazole-5-carboxamide], with 1000 to 10000 nM; and `CS(=O)(=O)n1cc(NC(=O)c2c(C(F)(F)F)cnn2CC2CC3(CC3)C2)cn1` [Example 48, N-(1-(methylsulfonyl)-1H-pyrazol-4-yl)-1-(spiro[2.3]hexan-5-ylmethyl)-4-(trifluoromethyl)-1H-pyrazole-5-carboxamide], with 1000 to 10000 nM.
